Measured values from US12152019B2, “Arylalkyl pyrazole compounds as indoleamine 2,3-dioxygenase inhibitors” (Merck Sharp & Dohme LLC, priority 2018, dated 2024).

What was measured:
IDO1 [1] = target: T1, IDO1 (Homo sapiens, UniProt P14902); test: IDO1 Human Whole Blood Assay; type: cell-based; settings: LPS and IFNγ 100 ng/mL, overnight (18 h), kynurenine by LC/MS/MS
Description: IDO1 Human Whole Blood Assay Compounds to be tested were serially diluted in ten 3-fold steps in DMSO starting from 10 mM. 3 μL of compound dilutions or DMSO alone were then dispensed from the dilution plate into a polypropylene 96-well assay plate containing 97 μL of RPMI using an Echo 555 acoustic liquid handler (Labcyte). LPS and IFNγ was prepared in RPMI to a 10× of final conc. (1000 ng/mL), final concentration is 100 ng/mL. […] 240 μL of blood was transferred to each of the wells of a v-bottom 96 well plate. 30 μL of compound was transferred from intermediate dilution plate, and incubated for 15 min. 30 μL from stimulants was then transferred to blood and mixed thoroughly. Plate was covered with breathable membrane and incubated at 37° C. for overnight (18 h). […] Plasma was diluted with RPMI in 1:1 ratio and proteins were precipitated out with two volume of Acetonitrile. The plates were centrifuged at 4000×G for 60 min. 20 μL of supernatant was carefully transferred to a 384 well plate contain 40 μL of 0.1% formic acid in water and analyzed by LC/MS/MS. LC/MS/MS analyses were performed using Thermo Fisher's LX4-TSQ Quantum Ultra system. This system consists of four Agilent binary high-performance liquid chromatography (HPLC) pumps and a TSQ Quantum Ultra triple quadrupole MS/MS instrument. For each sample, 5 μL were injected onto an Atlantis T3 column (2.1 mm×150 mm, 3 μm particle size) from Waters. The mobile phase gradient pumped at 0.8 mL/min was used to elute the analytes from the column at 25° C. The elution started at 0% B increasing linearly to 25% B at 6.5 min, holding at 25% for 1 min, re-equilibrating to 10 min. Mobile phase A consisted of 0.1% formic acid in water. Mobile phase B consisted of 0.1% of formic acid in acetonitrile. Data was acquired in positive mode using a HESI interface. The operational parameters for the TSQ Quantum Ultra instrument were a spray voltage of 4000 V, capillary temperature of 380° C., vaporizer temperature 400° C., shealth gas 60 arbitrary units, Aux gas 20 arbitrary units, tube lens 85 and collision gas 1.2 mTorr. SRM chromatograms of kynurenine (Q1: 209.2>Q3:94.0) and internal standard (Q1: 215.3>Q3:98.2) were collected for 90 sec. The peak area was integrated by Xcalibur Quan software. […] Compounds were titrated and IC50's were calculated by 4 parameter sigmoidal curve fitting formula.

IDO1 [2] = target: T1, IDO1; test: IDO1 Cellular Assay in HeLa Cells Stimulated with IFNγ; type: cell-based; settings: HeLa Cell Potency, IC50 (nM)
[3] = read-out: Human Whole Blood Potency, IC50

T1 sequence (P14902 whole entry): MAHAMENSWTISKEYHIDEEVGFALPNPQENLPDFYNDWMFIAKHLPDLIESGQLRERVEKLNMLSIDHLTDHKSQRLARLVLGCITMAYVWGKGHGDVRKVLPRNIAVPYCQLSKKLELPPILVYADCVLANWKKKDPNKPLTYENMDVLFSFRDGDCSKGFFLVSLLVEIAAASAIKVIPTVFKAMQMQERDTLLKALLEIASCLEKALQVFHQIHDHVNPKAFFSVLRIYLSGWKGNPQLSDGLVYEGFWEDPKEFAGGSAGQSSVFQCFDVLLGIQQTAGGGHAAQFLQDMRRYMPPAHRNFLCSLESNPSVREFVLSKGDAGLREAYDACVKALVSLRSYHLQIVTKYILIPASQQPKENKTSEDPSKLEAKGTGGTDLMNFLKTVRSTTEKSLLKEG

IC50 (IDO1 [1]; [3])	Compound	IC50 (IDO1 [2])	IC50 (IDO1 [1]; Human Whole Blood Potency, IC50 (nM))
110 nM	Cc1cccnc1O[C@H]1CC[C@@H](CCn2nc(C(=O)N3CC[C@H](O)[C@H](F)C3)c3c2C[C@H]2C[C@@H]32)CC1 [Example 83, [(3R,4S)-3-fluoro-4-hydroxypiperidin-1-yl] [(3bR,4aR)-1-(2-{cis-4-[(3-methylpyridin-2-yl)oxy]cyclohexyl}ethyl)-3b,4,4a,5-tetrahydro-1H-cyclopropa[3,4]cyclopenta [1,2-c]pyrazol-3-yl] methanone]		
736 nM	Cc1cccnc1O[C@H]1CC[C@@H](CCn2nc(C(=O)N3CCC(O)CC3)c3c2C[C@H](C(F)F)CC3)CC1 [Example 87, [(6R)-6-(difluoromethyl)-1-(2-{cis-4-[(3-methylpyridin-2-yl)oxy]cyclohexyl}ethyl)-4,5,6,7-tetrahydro-1H-indazol-3-yl](4-hydroxypiperidin-1-yl)methanone]		
247 nM	CC(=O)NC1CCN(C(=O)c2nn(CCN3CCN(c4cccc(C)c4C)CC3)c3c2[C@@H]2C[C@@H]2C3)CC1 [Example 100, N-(1-((3bR,4aR)-1-(2-(4-(2,3-dimethylphenyl)piperazin-1-yl)ethyl)-3b,4,4a,5-tetrahydro-1H-cyclopropa[3.4]cyclopenta[1,2-c]pyrazole-3-carbonyl)piperidin-4-yl)acetamide]		
261 nM	CC(=O)NC1CCN(C(=O)c2nn(CCN3CCN(c4cccc(Cl)c4C)CC3)c3c2[C@@H]2C[C@@H]2C3)CC1 [Example 102, N-(1-((3bR,4aR)-1-(2-(4-(3-chloro-2-methylphenyl)piperazin-1-yl)ethyl)-3b,4,4a,5-tetrahydro-1H-cyclopropa[3,4]cyclopenta[1,2-c]pyrazole-3-carbonyl)piperidin-4-yl)acetamide]		
	Cc1cccc(N2CCC(CCn3nc(C(=O)N4CCCC4)c4ccccc43)CC2)c1C [Example 103]	15.4 nM	1030 nM
